Literature values as cited in patent publication US20080089936A1, “PROLONGED RELEASE FORMULATION OF ACTIVE PRINCIPLES HAVING A PH-DEPENDENT SOLUBILITY” (SANOFI-AVENTIS, priority 2005, published 2008).

Conditions: hypnotic agent, oral

Structure (SMILES): Cc1ccc(-c2nc3ccc(C)cn3c2CC(=O)N(C)C)cc1 [zolpidem]
- duration of action: up to 6 hours
